For six compounds, IC50 results are on record in patent publication US10821115B2, “Compounds that inhibit Mcl-1 protein” (priority 2017, dated 2020).

For test [1], the system named is human multiple myeloma cell line, OPM-2. Put plainly: Cell viability assay (OPM-2 10 FBS), CellTiter-Glo. In kind it is cell-based. In short, it runs like this:
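IC50 values come from 4-parameter logistic fits of luminescence signals reflecting cell viability. Treatment lasted 16 h at 37 °C in complete medium with 10% FBS, starting from 3000 cells/well.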
In general terms: Cellular ATP, detected with luciferase, serves as a proxy for viable cell number.

The target in test [2] is recombinant human Mcl-1 (residues 171-327) / Bim interaction (Homo sapiens (Human), UniProt Q07820). Put plainly: biochemical. It counts as binding. The conditions noted are these: read-out: Mcl-1 HTRF IC50. A general note: In TR-FRET formats the signal depends on donor and acceptor labels being close together.
Chain of recombinant human Mcl-1 (residues 171-327) / Bim interaction (Q07820 171-327): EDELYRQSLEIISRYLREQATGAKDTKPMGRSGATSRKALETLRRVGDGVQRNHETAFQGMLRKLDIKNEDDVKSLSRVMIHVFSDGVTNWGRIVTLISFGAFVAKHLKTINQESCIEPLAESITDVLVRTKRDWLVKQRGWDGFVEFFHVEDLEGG
The mark [3] stands for this setting: Homo sapiens, OPM-2, 16 h, read-out: OPM-2 10% FBS IC50 IP, OPM-2 cells, 10% FBS, 16 h, CellTiter-Glo.
Setting [4] is: TR-FRET, Mcl-1(171-327) / biotin-Bim (51-76).
Where [5] appears, read: 0.1 nM Mcl-1(171-327), 0.05 nM biotin-Bim (51-76).
Where [6] appears, read: read-out: OPM-2 10% FBS IC50 IP, OPM-2 cells, 10% FBS, 16 h, CellTiter-Glo.

Where two headings read alike, the source gives them in different places.

With `C[C@@H]1[C@@H](C)CCCC2(OCCO2)[C@@H]2CC[C@H]2CN2C[C@@]3(CCCc4cc(Cl)ccc43)COc3ccc(cc32)C(=O)NS1(=O)=O` [Example 100102, (3′R,6′R,11′S,12′R,22′S)-6″-chloro-11′,12′-dimethyl-3″,4″-dihydro-2″H,15′H-dispiro[1,3-dioxolane-2,7′-[20]oxa[13]thia[1,14]diazatetracyclo [14.7.2.0~3,6~.0~19,24~]pentacosa[16,18,24]triene-22′,1″-naphthalen]-15′-one 13′,13′-dioxide], the IC50 (as a rule, the concentration at which inhibition is half-maximal) worked out at 1430 nM in test [1] (setting [3]) and 0.99 nM in test [2] (setting [4]).

Turning to `CO[C@@]1(CN2CC3(COC3)C2)/C=C/C[C@H](C)[C@@H](C)S(=O)(=O)NC(=O)c2ccc3c(c2)N(C[C@@H]2CC[C@H]21)C[C@@]1(CCCc2cc(Cl)ccc21)CO3` [Example 203, (1S,3′R,6′R,7′S,8′E,11′S,12′R)-6-chloro-7′-methoxy-11′,12′-dimethyl-7′-(2-oxa-6-azaspiro[3.3]hept-6-ylmethyl)-3,4-dihydro-2H,15′H-spiro[naphthalene-1,22′-[20]oxa[13]thia[1,14]diazatetracyclo [14.7.2.0~3,6~.0~19,24~]pentacosa[8,16,18,24]tetraen]-15′-one 13′,13′-dioxide], the IC50 in test [1] (Homo sapiens, OPM-2, 16 h, read-out: OPM-2 10% FBS IC50 IP, OPM-2 cells, 10% FBS, 16 h incubation) turned out to be 112 nM; in test [2] (setting [5]) it was 0.113 nM.

On to `CC[C@@H]1CCCC[C@](COC)(OC)[C@@H]2CC[C@H]2CN2C[C@@]3(CCCc4cc(Cl)ccc43)COc3ccc(cc32)C(=O)NS1(=O)=O` [Example 100037, (1S,3′R,6′R,7′S,12′R)-6-chloro-12′-ethyl-7′-methoxy-7′-(methoxymethyl)-3,4-dihydro-2H,15′H-spiro[naphthalene-1,22′-[20]oxa[13]thia[1,14]diazatetracyclo [14.7.2.0~3,6~.0~19,24~]pentacosa[16,18,24]trien]-15′-one 13′,13′-dioxide], for which the figures for the IC50 in test [1] (setting [3]) and in test [2] (setting [4]) were 1920 nM and 1.8 nM, respectively.

As to `CO[C@@]1(CS(=O)(=O)C(C)C)/C=C/C[C@H](C)[C@@H](C)S(=O)(=O)NC(=O)c2ccc3c(c2)N(C[C@@H]2CC[C@H]21)C[C@@]1(CCCc2cc(Cl)ccc21)CO3` [Example 100316, (1S,3′R,6′R,7′S,8′E,11′S,12′R)-6-chloro-7′-methoxy-11′,12′-dimethyl-7′-((2-propanylsulfonyl)methyl)-3,4-dihydro-2H,15′H-spiro[naphthalene-1,22′-[20]oxa[13]thia[1,14]diazatetracyclo [14.7.2.0~3,6~.0~19,24~]pentacosa[8,16,18,24]tetraen]-15′-one 13′,13′-dioxide], the half-inhibitory concentration (IC50) in test [1] (setting [6]) stood at 375 nM; in test [2] (setting [4]) it was 0.276 nM.

For `CCN(CC)C(=O)C[C@]1(O)CCC[C@H](C)[C@@H](C)S(=O)(=O)NC(=O)c2ccc3c(c2)N(C[C@@H]2CC[C@H]21)C[C@@]1(CCCc2cc(Cl)ccc21)CO3` [Example 100112, 2-((1S,3′R,6′R,7′R,11′S,12′R)-6-chloro-7′-hydroxy-11′,12′-dimethyl-13′,13′-dioxido-15′-oxo-3,4-dihydro-2H-spiro[naphthalene-1,22′-[20]oxa[13]thia[1,14]diazatetracyclo [14.7.2.0~3,6~.0~19,24~]pentacosa[16,18,24]trien]-7′-yl)-N,N-diethylacetamide], the IC50 in test [1] (setting [6]) is 1800 nM; in test [2], 1.29 nM.

On to `C[C@@H]1[C@@H](C)C/C=C/[C@]2(CNC(=O)O2)[C@@H]2CC[C@H]2CN2C[C@@]3(CCCc4cc(Cl)ccc43)COc3ccc(cc32)C(=O)NS1(=O)=O` (single isomer, unassigned) [Example 128], for which the half-inhibitory concentration (IC50) in test [1] (read-out: OPM-2 10% FBS IC50 IP, OPM-2 cells, 10% FBS, 16 h incubation) is 19600 nM; in test [2] (setting [5]), 0.256 nM.
